Our source for the mutagenic call values is PubChem BioAssay AID1259407 (Chemical Carcinogenesis Research Information System (CCRIS), 2018).

Activity calls are given as the source filed them. How the calls were made is not given here.

For this series, the system named is CCRIS mutagenicity, Ames/micronucleus/aberration tests. The experiment in a line: CCRIS mutagenicity studies.
The mark [1] stands for this setting: Test System: AMES SALMONELLA TYPHIMURIUM, Strain/Indicator: TA100, Metabolic Activation: NONE, Method: PREINCUBATION
[2] abbreviates: Test System: AMES SALMONELLA TYPHIMURIUM, Strain/Indicator: TA98, Metabolic Activation: NONE, Method: STANDARD PLATE.
Setting [3] is: Test System: AMES SALMONELLA TYPHIMURIUM, Strain/Indicator: TA98, Metabolic Activation: RAT, LIVER, S-9, AROCLOR 1254, Method: STANDARD PLATE.
Where [4] appears, read: Test System: AMES SALMONELLA TYPHIMURIUM, Strain/Indicator: TA100, Metabolic Activation: NONE, Method: STANDARD PLATE.
Where [5] appears, read: Test System: AMES SALMONELLA TYPHIMURIUM, Strain/Indicator: TA100, Metabolic Activation: RAT, LIVER, S-9, AROCLOR 1254, Method: STANDARD PLATE.
[6] abbreviates: Test System: AMES SALMONELLA TYPHIMURIUM, Strain/Indicator: TA1537, Metabolic Activation: NONE, Method: STANDARD PLATE.

For the compound `CC/C=C/C=O`, the mutagenic call reads like this: under setting [1], “inactive; negative”; (Test System: AMES SALMONELLA TYPHIMURIUM, Strain/Indicator: TA100, Metabolic Activation: NONE, Method: PREINCUBATION (THREEFOLD CELL DENSITY)) “active; positive”; (Test System: AMES SALMONELLA TYPHIMURIUM, Strain/Indicator: TA100, Metabolic Activation: RAT, LIVER, S-9, AROCLOR 1254, Method: PREINCUBATION) “active; positive”; (Test System: AMES SALMONELLA TYPHIMURIUM, Strain/Indicator: TA100, Metabolic Activation: RAT, LIVER, S-9, AROCLOR 1254, Method: PREINCUBATION (THREEFOLD CELL DENSITY)) “active; positive”; (Test System: CHINESE HAMSTER V-79, Strain/Indicator: V-79/6-THIOGUANINE, Metabolic Activation: NONE, Method: STANDARD PLATE) “active; positive”; (Test System: CHINESE HAMSTER V-79, Strain/Indicator: V-79/OUABAIN, Metabolic Activation: NONE, Method: STANDARD PLATE) “inactive; negative”.

For `O=c1cc2ccc3cccc4ccc([nH]1)c2c34`, the mutagenic call by setting is: under setting [2], “active; positive”; under setting [3], “active; positive”; under setting [4], “inactive; negative”; under setting [5], “active; positive”.

Consider `CCOC(=O)CC(C)=O`, for which the mutagenic call is, setting by setting: (Test System: AMES SALMONELLA TYPHIMURIUM, Strain/Indicator: TA97, Metabolic Activation: NONE, Method: PREINCUBATION) “inactive; negative”; (Test System: AMES SALMONELLA TYPHIMURIUM, Strain/Indicator: TA97, Metabolic Activation: RAT, LIVER, S-9, AROCLOR 1254, Method: PREINCUBATION) “inactive; negative”; (Test System: AMES SALMONELLA TYPHIMURIUM, Strain/Indicator: TA98, Metabolic Activation: NONE, Method: PREINCUBATION) “inactive; negative”; (Test System: AMES SALMONELLA TYPHIMURIUM, Strain/Indicator: TA98, Metabolic Activation: RAT LIVER S-9, PHENOBARBITAL AND BETA-NAPHTHOFLAVONE, Method: PREINCUBATION) “inactive; negative”; under setting [1], “inactive; negative”; (Test System: AMES SALMONELLA TYPHIMURIUM, Strain/Indicator: TA100, Metabolic Activation: RAT LIVER S-9, PHENOBARBITAL AND BETA-NAPHTHOFLAVONE, Method: PREINCUBATION) “inactive; negative”. The mutagenic call is, setting by setting: (Test System: AMES SALMONELLA TYPHIMURIUM, Strain/Indicator: TA102, Metabolic Activation: NONE, Method: PREINCUBATION) “inactive; negative”; (Test System: AMES SALMONELLA TYPHIMURIUM, Strain/Indicator: TA102, Metabolic Activation: RAT, LIVER, S-9, AROCLOR 1254, Method: PREINCUBATION) “inactive; negative”; (Test System: AMES SALMONELLA TYPHIMURIUM, Strain/Indicator: TA1535, Metabolic Activation: NONE, Method: PREINCUBATION) “inactive; negative”; (Test System: AMES SALMONELLA TYPHIMURIUM, Strain/Indicator: TA1535, Metabolic Activation: RAT LIVER S-9, PHENOBARBITAL AND BETA-NAPHTHOFLAVONE, Method: PREINCUBATION) “inactive; negative”; (Test System: AMES SALMONELLA TYPHIMURIUM, Strain/Indicator: TA1537, Metabolic Activation: NONE, Method: PREINCUBATION) “inactive; negative”; (Test System: AMES SALMONELLA TYPHIMURIUM, Strain/Indicator: TA1537, Metabolic Activation: RAT LIVER S-9, PHENOBARBITAL AND BETA-NAPHTHOFLAVONE, Method: PREINCUBATION) “inactive; negative”. Besides, the mutagenic call (Test System: AMES SALMONELLA TYPHIMURIUM, Strain/Indicator: TA1538, Metabolic Activation: NONE, Method: PREINCUBATION) is “inactive; negative”; the mutagenic call (Test System: AMES SALMONELLA TYPHIMURIUM, Strain/Indicator: TA1538, Metabolic Activation: RAT LIVER S-9, PHENOBARBITAL AND BETA-NAPHTHOFLAVONE, Method: PREINCUBATION) is “inactive; negative”; the mutagenic call (Test System: E.COLI, Strain/Indicator: WP2UVRA, Metabolic Activation: NONE, Method: PREINCUBATION) was “inactive; negative”; the mutagenic call (Test System: E.COLI, Strain/Indicator: WP2UVRA, Metabolic Activation: RAT LIVER S-9, PHENOBARBITAL AND BETA-NAPHTHOFLAVONE, Method: PREINCUBATION) is “inactive; negative”.

For the compound `Clc1cc(Cl)nc(Cl)n1`, the mutagenic call by setting is: (Test System: AMES SALMONELLA TYPHIMURIUM, Strain/Indicator: TA98, Metabolic Activation: HAMSTER, LIVER, S-9, AROCLOR 1254, Method: STANDARD PLATE) “inactive; negative”; under setting [2], “inactive; negative”; under setting [3], “inactive; negative”; (Test System: AMES SALMONELLA TYPHIMURIUM, Strain/Indicator: TA100, Metabolic Activation: HAMSTER, LIVER, S-9, AROCLOR 1254, Method: STANDARD PLATE) “inactive; negative”; under setting [4], “inactive; negative”; under setting [5], “inactive; negative”. Further, the mutagenic call reads like this: (Test System: AMES SALMONELLA TYPHIMURIUM, Strain/Indicator: TA1535, Metabolic Activation: HAMSTER, LIVER, S-9, AROCLOR 1254, Method: STANDARD PLATE) “inactive; negative”; (Test System: AMES SALMONELLA TYPHIMURIUM, Strain/Indicator: TA1535, Metabolic Activation: NONE, Method: STANDARD PLATE) “inactive; negative”; (Test System: AMES SALMONELLA TYPHIMURIUM, Strain/Indicator: TA1535, Metabolic Activation: RAT, LIVER, S-9, AROCLOR 1254, Method: STANDARD PLATE) “inactive; negative”; (Test System: AMES SALMONELLA TYPHIMURIUM, Strain/Indicator: TA1537, Metabolic Activation: HAMSTER, LIVER, S-9, AROCLOR 1254, Method: STANDARD PLATE) “inactive; negative”; under setting [6], “inactive; negative”; (Test System: AMES SALMONELLA TYPHIMURIUM, Strain/Indicator: TA1537, Metabolic Activation: RAT, LIVER, S-9, AROCLOR 1254, Method: STANDARD PLATE) “inactive; negative”. Also, the mutagenic call is, setting by setting: (Test System: AMES SALMONELLA TYPHIMURIUM, Strain/Indicator: TA1538, Metabolic Activation: HAMSTER, LIVER, S-9, AROCLOR 1254, Method: STANDARD PLATE) “inactive; negative”; (Test System: AMES SALMONELLA TYPHIMURIUM, Strain/Indicator: TA1538, Metabolic Activation: NONE, Method: STANDARD PLATE) “inactive; negative”; (Test System: AMES SALMONELLA TYPHIMURIUM, Strain/Indicator: TA1538, Metabolic Activation: RAT, LIVER, S-9, AROCLOR 1254, Method: STANDARD PLATE) “inactive; negative”; (Test System: Mouse lymphoma, Strain/Indicator: L5178Y (tk+/tk-), Metabolic Activation: None, Method: Suspension/plate) “active; inconclusive (previous evaluation positive)”; (Test System: Mouse lymphoma, Strain/Indicator: L5178Y (tk+/tk-), Metabolic Activation: Rat, Liver, S-9, Aroclor 1254, Method: Suspension/plate) “active; positive”.

For `CS(=O)(=O)Nc1ccc(Nc2c3ccc(N=[N+]=[N-])cc3nc3cc(N=[N+]=[N-])ccc23)cc1`, the mutagenic call under setting [6] is “active; positive”.

Regarding `CC(=O)N[C@@H](CSC(Cl)=C(Cl)Cl)C(=O)O`, the mutagenic call is “active; positive” under setting [1] and “active; positive” (Test System: AMES SALMONELLA TYPHIMURIUM, Strain/Indicator: TA100, Metabolic Activation: RAT, KIDNEY, CYTOSOL, Method: PREINCUBATION).

Regarding `Cc1ccc(O)cc1`, the mutagenic call was “inactive; negative” (Test System: Ames Salmonella typhimurium, Strain/Indicator: TA98, Metabolic Activation: Hamster, Liver, S-9, Aroclor 1254 (10%), Method: Preincubation); “inactive; negative” (Test System: Ames Salmonella typhimurium, Strain/Indicator: TA98, Metabolic Activation: None, Method: Preincubation); “inactive; negative” (Test System: Ames Salmonella typhimurium, Strain/Indicator: TA98, Metabolic Activation: Rat, Liver, S-9, Aroclor 1254 (10%), Method: Preincubation); “inactive; negative” (Test System: Ames Salmonella typhimurium, Strain/Indicator: TA100, Metabolic Activation: Rat, Liver, S-9, Aroclor 1254 (10%), Method: Preincubation); “inactive; negative” (Test System: Ames Salmonella typhimurium, Strain/Indicator: TA1535, Metabolic Activation: Rat, Liver, S-9, Aroclor 1254 (10%), Method: Preincubation); “inactive; negative” (Test System: Ames Salmonella typhimurium, Strain/Indicator: TA1537, Metabolic Activation: Rat, Liver, S-9, Aroclor 1254 (10%), Method: Preincubation).

For the compound `[CH3][Sn]([CH3])([CH3])[Cl]`, the mutagenic call reads like this: (Test System: AMES SALMONELLA TYPHIMURIUM, Strain/Indicator: TA98, Metabolic Activation: NONE, Method: SUSPENSION/PLATE) “inactive; negative”; (Test System: AMES SALMONELLA TYPHIMURIUM, Strain/Indicator: TA100, Metabolic Activation: NONE, Method: SUSPENSION/PLATE) “inactive; negative”.
